This is an account of results in patent US10584117B2, “1,3,4-oxadiazole amide derivative compound as histone deacetylase 6 inhibitor, and pharmaceutical composition containing same” (Chong Kun Dang Pharmaceutical Corp., priority 2015, dated 2020).

The structures appear in SMILES notation.

The assay concerns the target T1, human recombinant HDAC6 (Homo sapiens, UniProt Q9UBN7).
T1 construct: purchased Calbiochem 382180
T1 sequence (Q9UBN7 1-1215): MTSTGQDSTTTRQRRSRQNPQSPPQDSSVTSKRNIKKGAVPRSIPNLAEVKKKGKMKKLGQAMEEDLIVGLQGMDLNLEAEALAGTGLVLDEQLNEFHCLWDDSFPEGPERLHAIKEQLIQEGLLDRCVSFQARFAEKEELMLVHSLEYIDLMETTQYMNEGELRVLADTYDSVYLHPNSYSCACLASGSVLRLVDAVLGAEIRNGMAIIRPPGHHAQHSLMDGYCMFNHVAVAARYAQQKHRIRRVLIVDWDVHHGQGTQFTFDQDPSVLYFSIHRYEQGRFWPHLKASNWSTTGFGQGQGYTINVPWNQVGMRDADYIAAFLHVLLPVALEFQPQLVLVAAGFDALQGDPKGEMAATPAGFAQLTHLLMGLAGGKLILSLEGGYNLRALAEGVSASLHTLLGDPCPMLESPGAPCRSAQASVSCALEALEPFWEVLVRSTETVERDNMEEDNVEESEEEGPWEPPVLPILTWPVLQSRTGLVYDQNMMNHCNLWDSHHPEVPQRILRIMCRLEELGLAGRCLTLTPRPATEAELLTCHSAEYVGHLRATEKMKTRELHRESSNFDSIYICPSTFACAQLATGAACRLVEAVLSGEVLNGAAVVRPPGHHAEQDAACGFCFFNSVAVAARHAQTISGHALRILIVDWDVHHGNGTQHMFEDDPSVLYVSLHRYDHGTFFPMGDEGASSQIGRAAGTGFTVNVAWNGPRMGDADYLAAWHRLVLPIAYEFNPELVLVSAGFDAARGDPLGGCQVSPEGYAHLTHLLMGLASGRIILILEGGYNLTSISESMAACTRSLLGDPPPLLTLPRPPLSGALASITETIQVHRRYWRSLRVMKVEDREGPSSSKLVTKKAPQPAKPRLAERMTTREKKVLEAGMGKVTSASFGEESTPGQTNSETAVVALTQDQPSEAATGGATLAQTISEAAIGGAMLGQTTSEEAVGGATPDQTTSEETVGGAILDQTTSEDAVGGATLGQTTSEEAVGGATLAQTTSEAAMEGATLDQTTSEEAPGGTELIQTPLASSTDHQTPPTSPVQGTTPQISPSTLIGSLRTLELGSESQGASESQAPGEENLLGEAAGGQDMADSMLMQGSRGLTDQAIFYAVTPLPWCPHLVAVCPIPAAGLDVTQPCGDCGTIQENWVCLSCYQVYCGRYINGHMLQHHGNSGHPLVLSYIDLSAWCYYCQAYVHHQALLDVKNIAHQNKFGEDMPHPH
Briefly: HDAC enzyme activity inhibition assay (HDAC6, fluorimetric kit). Format: biochemical. Particulars: for HDAC6 selectivity (fold): HDAC6 versus HDAC1; for IC50: same protocol as the HDAC1 test. The method, boiled down:
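Fluorimetric kit assay: human recombinant HDAC1 or HDAC6 (0.3 μg) reacted with 10 μM Fluor de Lys-SIRT1 substrate and 5-fold serially diluted compound for 60 minutes at 30° C, followed by 30 minutes of developer. Fluorescence was read at Ex 360/Em 460, and IC50 values were calculated from it.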

For orientation: IC50 means the concentration that inhibits the measured activity by half. Take `CN1CC(C(=O)N(Cc2ccc(-c3nnc(C(F)F)o3)cc2F)c2cccc(F)c2)C1` [Compound 11325, N-(4-(5-(difluoromethyl)-1,3,4-oxadiazol-2-yl)-2-fluorobenzyl)-N-(3-fluorophenyl)-1-methylazetidine-3-carboxamide]: the “HDAC6 selectivity (fold)” value stood at 1111 fold and the IC50 is 90 nM.

As to `CCN1CC(C(=O)N(Cc2ccc(-c3nnc(C(F)F)o3)cc2F)c2cccc(F)c2)C1` [Compound 11326, N-(4-(5-(difluoromethyl)-1,3,4-oxadiazol-2-yl)-2-fluorobenzyl)-1-ethyl-N-(3-fluorophenyl)azetidine-3-carboxamide], the “HDAC6 selectivity (fold)” value came out at 1754 fold and the IC50 turned out to be 57 nM.

On to `CCCN1CC(C(=O)N(Cc2ccc(-c3nnc(C(F)F)o3)cc2F)c2cccc(F)c2)C1` [Compound 11327, N-(4-(5-(difluoromethyl)-1,3,4-oxadiazol-2-yl)-2-fluorobenzyl)-N-(3-fluorophenyl)-1-propylazetidine-3-carboxamide], for which the “HDAC6 selectivity (fold)” value is 2041 fold and the IC50 turned out to be 49 nM.

For the compound `CCCCN1CC(C(=O)N(Cc2ccc(-c3nnc(C(F)F)o3)cc2F)c2cccc(F)c2)C1` [Compound 11328, 1-butyl-N-(4-(5-(difluoromethyl)-1,3,4-oxadiazol-2-yl)-2-fluorobenzyl)-N-(3-fluorophenyl)azetidine-3-carboxamide], the “HDAC6 selectivity (fold)” value is listed as 1235 fold and the IC50 came to 81 nM.

`CC(C)N1CC(C(=O)N(Cc2ccc(-c3nnc(C(F)F)o3)cc2F)c2cccc(F)c2)C1` [Compound 11329, N-(4-(5-(difluoromethyl)-1,3,4-oxadiazol-2-yl)-2-fluorobenzyl)-N-(3-fluorophenyl)-1-isopropylazetidine-3-arboxamide]: the “HDAC6 selectivity (fold)” value is recorded as 1786 fold and the IC50 was found to be 56 nM.

In the case of `CC(=O)N1CC(C(=O)N(Cc2ccc(-c3nnc(C(F)F)o3)cc2F)c2cccc(F)c2)C1` [Compound 11330, 1-acetyl-N-(4-(5-(difluoromethyl)-1,3,4-oxadiazol-2-yl)-2-fluorobenzyl)-N-(3-fluorophenyl)azetidine-3-carboxamide], the “HDAC6 selectivity (fold)” value stood at 1961 fold and the IC50 was 51 nM.

`CCC(=O)N1CC(C(=O)N(Cc2ccc(-c3nnc(C(F)F)o3)cc2F)c2cccc(F)c2)C1` [Compound 11331, N-(4-(5-(difluoromethyl)-1,3,4-oxadiazol-2-yl)-2-fluorobenzyl)-N-(3-fluorophenyl)-1-propionylazetidine-3-carboxamide]: the “HDAC6 selectivity (fold)” value is on record as 1786 fold and the IC50 turned out to be 56 nM.

With `CC(C)C(=O)N1CC(C(=O)N(Cc2ccc(-c3nnc(C(F)F)o3)cc2F)c2cccc(F)c2)C1` [Compound 11332, N-(4-(5-(difluoromethyl)-1,3,4-oxadiazol-2-yl)-2-fluorobenzyl)-N-(3-fluorophenyl)-1-isobutyrylazetidine-3-carboxamide], the “HDAC6 selectivity (fold)” value came out at 2326 fold and the IC50 is 43 nM.

As for `CS(=O)(=O)N1CC(C(=O)N(Cc2ccc(-c3nnc(C(F)F)o3)cc2F)c2cccc(F)c2)C1` [Compound 11333, N-(4-(5-(difluoromethyl)-1,3,4-oxadiazol-2-yl)-2-fluorobenzyl)-N-(3-fluorophenyl)-1-(methylsulfonyl)azetidine-3-carboxamide], the “HDAC6 selectivity (fold)” value stood at 3448 fold and the IC50 was found to be 29 nM.

Turning to `CCS(=O)(=O)N1CC(C(=O)N(Cc2ccc(-c3nnc(C(F)F)o3)cc2F)c2cccc(F)c2)C1` [Compound 11334, N-(4-(5-(difluoromethyl)-1,3,4-oxadiazol-2-yl)-2-fluorobenzyl)-1-(ethylsulfonyl)-N-(3-fluorophenyl)azetidine-3-carboxamide], the “HDAC6 selectivity (fold)” value is listed as 2632 fold and the IC50 was 38 nM.

As for `CC(=O)N(Cc1ccc(-c2nnc(C(F)F)o2)cc1F)c1cccc(F)c1` [Compound 11339, N-(4-(5-(difluoromethyl)-1,3,4-oxadiazol-2-yl)-2-fluorobenzyl)-N-(3-fluorophenyl)acetamide], the “HDAC6 selectivity (fold)” value is 2041 fold and the IC50 turned out to be 49 nM.

As for `CC(=O)N(Cc1ccc(-c2nnc(C(F)(F)F)o2)cc1F)c1cccc(F)c1` [Compound 11340, N-(2-fluoro-4-(5-(trifluoromethyl)-1,3,4-oxadiazol-2-yl)benzyl)-N-(3-fluorophenyl)acetamide], the “HDAC6 selectivity (fold)” value is on record as 1087 fold and the IC50 was 92 nM.

With `O=C(c1ccncc1)N(Cc1ccc(-c2nnc(C(F)F)o2)cn1)c1ccccc1` [Compound 11341, N-((5-(5-(difluoromethyl)-1,3,4-oxadiazol-2-yl)pyridin-2-yl)methyl)-N-phenylisonicotinamide], the “HDAC6 selectivity (fold)” value came out at 2941 fold and the IC50 is 34 nM.

Turning to `CCC(=O)N(Cc1ccc(-c2nnc(C(F)F)o2)cc1F)c1cccc(F)c1` [Compound 11356, N-(4-(5-(difluoromethyl)-1,3,4-oxadiazol-2-yl)-2-fluorobenzyl)-N-(3-fluorophenyl)propionamide], the “HDAC6 selectivity (fold)” value was 1961 fold and the IC50 came out at 51 nM.

`CCCC(=O)N(Cc1ccc(-c2nnc(C(F)F)o2)cc1F)c1cccc(F)c1` [Compound 11357, N-(4-(5-(difluoromethyl)-1,3,4-oxadiazol-2-yl)-2-fluorobenzyl)-N-(3-fluorophenyl)butyramide]: the “HDAC6 selectivity (fold)” value turned out to be 1149 fold and the IC50 turned out to be 87 nM.

As to `CC(C)CC(=O)N(Cc1ccc(-c2nnc(C(F)F)o2)cc1F)c1cccc(F)c1` [Compound 11358, N-(4-(5-(difluoromethyl)-1,3,4-oxadiazol-2-yl)-2-fluorobenzyl)-N-(3-fluorophenyl)-3-methylbutanamide], the “HDAC6 selectivity (fold)” value came out at 847 fold and the IC50 came to 118 nM.

In the case of `O=C(c1ccncc1)N(Cc1ccc(-c2nnc(C(F)(F)F)o2)cn1)c1cccc(F)c1` [Compound 11359, N-(3-fluorophenyl)-N-((5-(5-(trifluoromethyl)-1,3,4-oxadiazol-2-yl)pyridin-2-yl)methyl)isonicotinamide], the “HDAC6 selectivity (fold)” value turned out to be 2941 fold and the IC50 turned out to be 34 nM.

As for `O=C(c1ccncc1)N(Cc1ccc(-c2nnc(C(F)F)o2)cn1)c1cccc(F)c1` [Compound 11360, N-((5-(5-(difluoromethyl)-1,3,4-oxadiazol-2-yl)pyridin-2-yl)methyl)-N-(3-fluorophenyl)isonicotinamide], the “HDAC6 selectivity (fold)” value came out at 3125 fold and the IC50 was 32 nM.

For `O=C(c1cccnc1)N(Cc1ccc(-c2nnc(C(F)F)o2)cn1)c1cccc(F)c1` [Compound 11376, N-((5-(5-(difluoromethyl)-1,3,4-oxadiazol-2-yl)pyridin-2-yl)methyl)-N-(3-fluorophenyl)nicotinamide], the “HDAC6 selectivity (fold)” value is recorded as 4167 fold and the IC50 came out at 24 nM.

As for `CN1CCC(C(=O)N(Cc2ccc(-c3nnc(C(F)F)o3)cn2)c2ccccc2)CC1` [Compound 11414, N-((5-(5-(difluoromethyl)-1,3,4-oxadiazol-2-yl)pyridin-2-yl)methyl)-1-methyl-N-phenylpipetidine-4-carboxamide], the “HDAC6 selectivity (fold)” value is listed as 2500 fold and the half-maximal inhibitory concentration (IC50) came to 40 nM.

As for `CN1CCC(C(=O)N(Cc2ccc(-c3nnc(C(F)F)o3)cn2)c2cccc(F)c2)CC1` [Compound 11418, N-((5-(5-(difluoromethyl)-1,3,4-oxadiazol-2-yl)pyridin-2-yl)methyl)-N-(3-fluorophenyl)-1-methylpiperidine-4-carboxamide], the “HDAC6 selectivity (fold)” value is given as 2500 fold and the IC50 was found to be 40 nM.

Turning to `CCN1CCC(C(=O)N(Cc2ccc(-c3nnc(C(F)F)o3)cn2)c2cccc(F)c2)CC1` [Compound 11419, N-((5-(5-(difluoromethyl)-1,3,4-oxadiazol-2-yl)pyridin-2-yl)methyl)-1-ethyl-N-(3-fluorophenyl)piperidine-4-carboxamide], the “HDAC6 selectivity (fold)” value is 3333 fold and the IC50 worked out at 30 nM.
